Key:
[1] = target: T1, GST tagged LXRbeta LBD (ligand binding domain) (Homo sapiens, UniProt P55055); experiment: LanthaScreen TR-FRET Liver X Receptor Coactivator Assay, LXR beta-LBD (co-activator recruitment; IP and % Emax relative to T0901317); format: biochemical; conditions: for EC50: Inflection Point of co-activator recruitment, LXR beta-LBD, TR-FRET; for Emax: efficacy at max dose in relation to reference T0901317, LXR beta-LBD, read-out: LXR beta actiivty at max dose (%)
T1 construct: purchased Invitrogen pv4658.pps
T1 sequence (P55055 222-460 limits assumed): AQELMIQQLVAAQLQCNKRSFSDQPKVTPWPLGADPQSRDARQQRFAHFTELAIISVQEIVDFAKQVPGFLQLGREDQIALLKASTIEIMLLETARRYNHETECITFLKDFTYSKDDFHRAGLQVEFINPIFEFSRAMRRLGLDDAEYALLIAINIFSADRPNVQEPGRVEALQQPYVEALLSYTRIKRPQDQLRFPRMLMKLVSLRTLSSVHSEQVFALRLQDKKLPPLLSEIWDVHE
Method in brief: (§1)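 LXR LBD protein was added to test compounds, then a mix of fluorescein-labelled coactivator peptide and terbium anti-GST antibody. After incubation at room temperature, TR-FRET was read. Inflection point and Emax were derived relative to the reference dual agonist T0901317.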

[2] = target: T2, GST tagged LXRalpha LBD (ligand binding domain) (Homo sapiens, UniProt Q13133); experiment: LanthaScreen TR-FRET Liver X Receptor Coactivator Assay, LXR alpha-LBD (co-activator recruitment; IP and % Emax relative to T0901317); format: biochemical; conditions: for LXR alpha IP (nM) / EC50: Inflection Point of co-activator recruitment, LXR alpha-LBD, TR-FRET; for Emax: efficacy at max dose in relation to reference T0901317, LXR alpha-LBD, read-out: LXR alpha actiivty at max dose (%)
T2 construct: purchased Invitrogen pv4655
T2 sequence (Q13133 209-447 limits assumed): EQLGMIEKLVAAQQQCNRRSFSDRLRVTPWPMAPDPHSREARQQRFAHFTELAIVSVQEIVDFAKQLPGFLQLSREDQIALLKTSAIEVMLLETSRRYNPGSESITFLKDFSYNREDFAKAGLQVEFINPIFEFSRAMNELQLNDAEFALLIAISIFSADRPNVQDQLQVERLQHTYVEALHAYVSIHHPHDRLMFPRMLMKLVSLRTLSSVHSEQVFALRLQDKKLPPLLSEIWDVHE
Method in brief: as §1

SMILES	EC50 [1] [nM]	Emax [1] [%]	LXR alpha IP (nM) [2]	Emax [2] [%]	EC50 [2] [nM]
CN(C)C(=O)c1ccc(N2CCC(CCCN(C)C(=O)[C@]3(c4ccccc4)CCOC3)CC2)nc1Cl [Example 1-54, (S)-2-chloro-N,N-dimethyl-6-(4-(3-(N-methyl-3-phenyltetrahydrofuran-3-carboxamido)propyl)piperidin-1-yl)nicotinamide]	579	49	No IP	15	
COc1cccc([C@@](O)(C(=O)N(C)CCC2CC3(CCN(c4ccc(C(=O)N(C)C)c(Cl)n4)CC3)C2)C(F)(F)F)c1 [Example 13-1]	34	50		26	472
COc1cccc([C@@](O)(C(=O)N(C)CCCC2(C)CCN(c3ccc(C(=O)N(C)C)c(Cl)c3)CC2)C(F)(F)F)c1 [Example 9-6, (R)-2-chloro-N,N-dimethyl-4-(4-methyl-4-(3-(3,3,3-trifluoro-2-hydroxy-2-(3-methoxyphenyl)-N-methylpropanamido)propyl)piper-idin-1-yl)benzamide]	136	20	No IP	0	
COc1cccc([C@@](O)(C(=O)N(C)CC[C@H]2CC23CCN(c2ccc(C(=O)NC(C)C)c(Cl)c2)CC3)C(F)(F)F)c1 [Example 7-10, 2-chloro-N-isopropyl-4-((R)-1-(2-((R)-3,3,3-trifluoro-2-hydroxy-2-(3-methoxyphenyl)-N-methylpropanamido)ethyl)-6-azaspiro[2.5]octan-6-yl)benzamide]	100	58		35	1060
CN(C)C(=O)c1ccc(N2CCC(CCCN(C)C(=O)[C@@]3(c4ccccc4F)CCCO3)CC2)nc1Cl [Example 1-5, (S)-2-chloro-6-(4-(3-(2-(2-fluorophenyl)-N-methyl-tetrahydrofuran-2-carboxamido)propyl)piperidin-1-yl)-N,N-dimethylnicotinamide]	55	82	No IP	6	
CN(C)C(=O)c1ccc(N2CCC3(CC2)C[C@@H]3CCN(C)C(=O)[C@](O)(c2cccc(OC3CC3)c2)C(F)(F)F)cc1Cl [Example 7-3, 2-chloro-4-((R)-1-(2-((R)-2-(3-cyclopropoxyphenyl)-3,3,3-trifluoro-2-hydroxy-N-methylpropanamido)ethyl)-6-azaspiro[2.5]octan-6-yl)-N,N-dimethylbenzamide]	32	61		24	601
CN(C)C(=O)c1ccc(N2CCC(CCCN(C)C(=O)[C@](O)(c3cccc(C(F)(F)F)c3)C(F)(F)F)CC2)nc1Cl [Example 1-49, (R)-2-chloro-N,N-dimethyl-6-(4-(3-(3,3,3-trifluoro-2-hydroxy-N-methyl-2-(3-(trifluoromethyl)phenyl)pro-panamido)propyl)piperidin-1-yl)nicotinamide]	54	50	No IP	0	
CN(C)C(=O)c1ccc(N2CCC3(CC2)CC3CCCNC(=O)C(C)(C)c2ccccc2)cc1Cl (centres unmarked) [Example 7-36, 2-chloro-N,N-dimethyl-4-(1-(3-(2-methyl-2-phenylpropanamido)propyl)-6-azaspiro[2.5]octan-6-yl)benzamide]	525	57	No IP	0	
COc1cccc([C@@](O)(C(=O)N(C)CCCC2CCN(c3ccc(C(=O)N4CC[C@H](CO)C4)c(Cl)n3)CC2)C(F)(F)F)c1 [Example 2-8, (R)-N-(3-(1-(6-chloro-5-((S)-3-(hydroxymethyl)pyrrolidine-1-carbonyl)pyridin-2-yl)piperidin-4-yl)propyl)-3,3,3-trifluoro-2-hydroxy-2-(3-methoxyphenyl)-N-methylpropanamide]	11	47		40	690
CC(C)Oc1cccc(C(O)(C(=O)N(C)CCCC2CCN(c3ccc(C(=O)N(C)C)c(Cl)n3)CC2)C(F)(F)F)c1 (centres unmarked) [Example 1-32, 2-chloro-N,N-dimethyl-6-(4-(3-(3,3,3-trifluoro-2-hydroxy-2-(3-isopropoxyphenyl)-N-methylpropanamido)propyl)piperidin-1-yl)nicotinamide]	95	48	No IP	0	
CN(C)C(=O)c1ccc(N2CCC(CCCNC(=O)C(O)(c3ccccc3)C(F)(F)F)CC2)cc1Cl (centres unmarked) [Example 5-1, 2-chloro-N,N-dimethyl-4-(4-(3-(3,3,3-trifluoro-2-hydroxy-2-phenylpropanamido)propyl)piperidin-1-yl)benzamide]	610	95		14	3510
CC(C)C(O)(C(=O)N(C)CCCC1CCN(c2ccc(C(=O)N(C)C)c(Cl)c2)CC1)C(F)(F)F (centres unmarked) [Example 4-8, 2-chloro-4-(4-(3-(2-hydroxy-N,3-dimethyl-2-(trifluoromethyl)butanamido)propyl)piperidin-1-yl)-N,N-dimethyl-benzamide]	471	73		23	3350
CN(C)C(=O)c1ccc(N2CCC(CCCN(C)C(=O)[C@@](O)(c3cccc(OC(F)(F)F)c3)C(F)(F)F)CC2)nc1Cl [Example 1-39, (S)-2-chloro-N,N-dimethyl-6-(4-(3-(3,3,3-trifluoro-2-hydroxy-N-methyl-2-(3-(trifluoromethoxy)phenyl)propanamido)propyl)piperidin-1-yl)nicotinamide]	567	53		34	11100
COc1cccc([C@@](O)(C(=O)N(C)CCCC2CCN(c3ccc(C(=O)N(C)C(C)C)c(Cl)n3)CC2)C(F)(F)F)c1 [Example 2-4, (R)-2-chloro-N-isopropyl-N-methyl-6-(4-(3-(3,3,3-trifluoro-2-hydroxy-2-(3-methoxyphenyl)-N-methylpropanamido)propyl)piperidin-1-yl)nicotinamide]	24	61	No IP	0	
COc1cccc([C@@](O)(C(=O)NCC[C@H]2CC23CCN(c2ccc(C(=O)N(C)C(C)C)c(Cl)c2)CC3)C(F)(F)F)c1 [Example 7-31, 2-chloro-N-isopropyl-N-methyl-4-((R)-1-(2-((R)-3,3,3-trifluoro-2-hydroxy-2-(3-methoxy-phenyl)propanamido)ethyl)-6-azaspiro[2.5]octan-6-yl)benzamide]	304	49	No IP	1	
CNC(=O)c1ccc(N2CCC(CC3CC(NC(=O)[C@](O)(c4ccccc4)C(F)(F)F)C3)CC2)cc1Cl (stereo partly drawn) [Example 11-3, (R)-2-chloro-N-methyl-4-(4-((3-(3,3,3-trifluoro-2-hydroxy-2-phenylpropanamido)cyclobutyl)methyl)piperidin-1-yl)benzamide]	508	93		22	6010
CNC(=O)c1ccc(N2CCC3(CC2)C[C@@H]3CCN(C)C(=O)[C@](O)(c2cccc(OC)c2)C(F)(F)F)cc1Cl [Example 7-8, 2-chloro-N-methyl-4-((R)-1-(2-((R)-3,3,3-trifluoro-2-hydroxy-2-(3-methoxyphenyl)-N-methylpropanamido)ethyl)-6-azaspiro[2.5]octan-6-yl)benzamide]	82	56		33	1270
CN(C)C(=O)c1ccc(N2CCC(CCCNC(=O)[C@](O)(c3cccc(OC4CC4)c3)C(F)(F)F)CC2)nc1Cl [Example 5-11, (R)-2-chloro-6-(4-(3-(2-(3-cyclopropoxyphenyl)-3,3,3-trifluoro-2-hydroxypropanamido)propyl)piperidin-1-yl)-N,N-dimethylnicotinamide]	349	46	No IP	-8	
CN(C)C(=O)c1ccc(N2CCC(CCCN(C)C(=O)C(C)(C)c3ccccc3)CC2)cc1Cl [Example 4-5, 2-chloro-4-(4-(3-(N,2-dimethyl-2-phenylpropanamido)propyl)piperidin-1-yl)-N,N-dimethylbenzamide]	229	50	No IP	8	
COc1cccc([C@@](O)(C(=O)N(C)CCCC2CCN(c3ccc(C(=O)N(C)C)c(Cl)c3)CC2)C(F)(F)F)c1 [Example 4-1, (R)-2-chloro-N,N-dimethyl-4-(4-(3-(3,3,3-trifluoro-2-hydroxy-2-(3-methoxyphenyl)-N-methylpropanamido)propyl)piperidin-1-yl)benzamide]	247	59	No IP	8	
